Patent publication US20210251991A1, “SUBSTITUTED 2,2'-BIPYRIMIDINYL COMPOUNDS, ANALOGUES THEREOF, AND METHODS USING SAME” (priority 2018, published 2021)
Read-outs that look alike come from different tables or passages of the source.

Tested on: HBsAg in HepG2.2.15 cells
Test: HBsAg assay: inhibition of HBsAg in HepG2.2.15 cells (chemiluminescence immunoassay of supernatant)
Format: cell-based, hepatitis B virus
Method: Inhibition of HBsAg was determined in HepG2.2.15 cells. Cells were maintained in culture medium containing 10% fetal calf serum, […], Glutamine, penicillin/streptomycin. Cells were seeded in 96-well collagen-coated plate at a density of 30,000 cells/well. Serially diluted compounds were added to cells next day at the final DMSO concentration of 0.5%. Cells were incubated with compounds for 2-3 days, after which medium was removed. Fresh medium containing compounds was added to cells for additional 3-4 days. At day 6 after exposure of compounds, supernatant was collected, the HBsAg immunoassay (microplate-based chemiluminescence immunoassay kits, CLIA, Autobio Diagnosics Co., Zhengzhou, China, Catalog #CL0310-2) was used to determine the level of HBsAg according to manufactory instruction. Dose-response curves were generated and the EC50 value (effective concentrations that achieved 50% inhibitory effect) were determined using XLfit software. In addition, cells were seeded at a density of 5,000 cells/well for determination of cell viability in the presence and absence of compounds by using CellTiter-Glo reagent (Promega).

[1] = read-out: sAg EC50, HepG2.2.15 cells, supernatant collected at day 6 after exposure, HBsAg CLIA
[2] = Hepatitis B virus, HepG2.2.15, 144 h, read-out: sAg EC50, HepG2.2.15 cells, supernatant collected at day 6 after exposure, HBsAg CLIA

Compound	EC50 [1] [nM]	EC50 [2] [nM]
CCC1c2ccccc2CCN1c1cnc(-c2ncccn2)nc1 (single isomer, unassigned) [Example 11, 2-([2,2′-Bipyrimidin]-5-yl)-1-ethyl-1,2,3,4-tetrahydroisoquinoline]	1400	
CCC1c2ccccc2CCN1c1cnc(-c2ncccn2)nc1 (single isomer, unassigned) [Example 12, 2-([2,2′-Bipyrimidin]-5-yl)-1-ethyl-1,2,3,4-tetrahydroisoquinoline]	190	
CCC1c2cc(OC)c(F)c(F)c2CCN1c1cnc(-c2ncccn2)nc1 (single isomer, unassigned) [Example 30, 1-Ethyl-5,6-difluoro-7-methoxy-2-(2-pyrimidin-2-ylpyrimidin-5-yl)-3,4-dihydro-1H-isoquinoline]	130	
CCC1c2cc(OC)c(F)c(F)c2CCN1c1cnc(-c2ncccn2)nc1 (single isomer, unassigned) [Example 31, 1-Ethyl-5,6-difluoro-7-methoxy-2-(2-pyrimidin-2-ylpyrimidin-5-yl)-3,4-dihydro-1H-isoquinoline]	1200	
CCC1c2ccc(F)c(F)c2CCN1c1cnc(-c2ncccn2)nc1 (single isomer, unassigned) [Example 33, 1-Ethyl-5,6-difluoro-2-(2-pyrimidin-2-ylpyrimidin-5-yl)-3,4-dihydro-1H-isoquinoline]	390	
CCC1c2ccc(F)c(F)c2CCN1c1cnc(-c2ncccn2)nc1 (single isomer, unassigned) [Example 34, 1-Ethyl-5,6-difluoro-2-(2-pyrimidin-2-ylpyrimidin-5-yl)-3,4-dihydro-1H-isoquinoline]	160	
CC1c2ccc(F)c(F)c2CCN1c1ccnc(-c2ncccn2)n1 (single isomer, unassigned) [Example 37, 2-([2,2′-Bipyrimidin]-4-yl)-5,6-difluoro-1-methyl-1,2,3,4-tetrahydroisoquinoline]	310	
CC1c2ccc(F)c(F)c2CCN1c1ccnc(-c2ncccn2)n1 (single isomer, unassigned) [Example 38, 2-([2,2′-Bipyrimidin]-4-yl)-5,6-difluoro-1-methyl-1,2,3,4-tetrahydroisoquinoline]	1400	
CCC1c2ccc(F)c(F)c2CCN1c1ccnc(-c2ncccn2)n1 (single isomer, unassigned) [Example 40, 1-Ethyl-5,6-difluoro-2-(2-pyrimidin-2-ylpyrimidin-4-yl)-3,4-dihydro-1H-isoquinoline]	500	
CCC1c2ccc(F)c(F)c2CCN1c1ccnc(-c2ncccn2)n1 (single isomer, unassigned) [Example 41, 1-Ethyl-5,6-difluoro-2-(2-pyrimidin-2-ylpyrimidin-4-yl)-3,4-dihydro-1H-isoquinoline]	2600	
CCC1c2c(OC)ccc(F)c2CCN1c1ccnc(-c2ncccn2)n1 (single isomer, unassigned) [Example 43, 1-Ethyl-5-fluoro-8-methoxy-2-(2-pyrimidin-2-ylpyrimidin-4-yl)-3,4-dihydro-1H-isoquinoline]	60	
CCC1c2c(OC)ccc(F)c2CCN1c1ccnc(-c2ncccn2)n1 (single isomer, unassigned) [Example 44, 1-Ethyl-5-fluoro-8-methoxy-2-(2-pyrimidin-2-ylpyrimidin-4-yl)-3,4-dihydro-1H-isoquinoline]	7000	
CCC1c2cc(F)c(F)cc2CN1c1ccnc(-c2ncccn2)n1 (single isomer, unassigned) [Example 49, 2-([2,2′-Bipyrimidin]-4-yl)-1-ethyl-5,6-difluoroisoindoline]	44	
CCC1c2cc(F)c(F)cc2CN1c1ccnc(-c2ncccn2)n1 (single isomer, unassigned) [Example 50, 2-([2,2′-Bipyrimidin]-4-yl)-1-ethyl-5,6-difluoroisoindoline]	400	
CCC1c2cc(OC)c(OC)cc2CN1c1ccnc(-c2ncccn2)n1 (single isomer, unassigned) [Example 56, 2-([2,2′-Bipyrimidin]-4-yl)-1-ethyl-5,6-dimethoxyisoindoline]	12	
CCC1c2cc(OC)c(OC)cc2CN1c1ccnc(-c2ncccn2)n1 (single isomer, unassigned) [Example 57, 2-([2,2′-Bipyrimidin]-4-yl)-1-ethyl-5,6-dimethoxyisoindoline]	76	
CCC1c2cc(F)c(OC)cc2CN1c1ccnc(-c2ncccn2)n1 (single isomer, unassigned) [Example 64, 2-([2,2′-Bipyrimidin]-4-yl)-1-ethyl-6-fluoro-5-methoxyisoindoline]	12	
CCC1c2cc(F)c(OC)cc2CN1c1ccnc(-c2ncccn2)n1 (single isomer, unassigned) [Example 65, 2-([2,2′-Bipyrimidin]-4-yl)-1-ethyl-6-fluoro-5-methoxyisoindoline]	230	

Compound	EC50 [1] [nM]	EC50 [2] [nM]
CCC1c2cc(F)c(OC)cc2CN1c1nc(-c2ncccn2)ncc1-c1ccccc1 (single isomer, unassigned) [Example 66, 1-Ethyl-6-fluoro-5-methoxy-2-(5-phenyl-[2,2′-bipyrimidin]-4-yl)isoindoline]	1000	
CCC1c2cc(F)c(OC)cc2CN1c1nc(-c2ncccn2)ncc1-c1ccccc1 (single isomer, unassigned) [Example 67, 1-Ethyl-6-fluoro-5-methoxy-2-(5-phenyl-[2,2′-bipyrimidin]-4-yl)isoindoline]	18000	
CCC1c2cc(F)c(OC)cc2CN1c1nc(-c2ncccn2)ncc1C (single isomer, unassigned) [Example 68, 1-Ethyl-6-fluoro-5-methoxy-2-(5-methyl-[2,2′-bipyrimidin]-4-yl)isoindoline]	2	
CCC1c2cc(F)c(OC)cc2CN1c1nc(-c2ncccn2)ncc1C (single isomer, unassigned) [Example 69, 1-Ethyl-6-fluoro-5-methoxy-2-(5-methyl-[2,2′-bipyrimidin]-4-yl)isoindoline]	59	
CCC1c2cc(F)c(OC)cc2CN1c1nc(-c2ncccn2)ncc1F (single isomer, unassigned) [Example 71, 1-Ethyl-6-fluoro-2-(5-fluoro-[2,2′-bipyrimidin]-4-yl)-5-methoxyisoindoline]	3	
CCC1c2cc(F)c(OC)cc2CN1c1nc(-c2ncccn2)ncc1F (single isomer, unassigned) [Example 72, 1-Ethyl-6-fluoro-2-(5-fluoro-[2,2′-bipyrimidin]-4-yl)-5-methoxyisoindoline]	67	
CCC1c2cc(F)c(OC)cc2CN1c1nc(-c2ncccn2)ncc1OC (single isomer, unassigned) [Example 73, 1-Ethyl-6-fluoro-5-methoxy-2-(5-methoxy-[2,2′-bipyrimidin]-4-yl)isoindoline]	1000	
CCC1c2cc(F)c(OC)cc2CN1c1nc(-c2ncccn2)ncc1OC (single isomer, unassigned) [Example 74, 1-Ethyl-6-fluoro-5-methoxy-2-(5-methoxy-[2,2′-bipyrimidin]-4-yl)isoindoline]	8	
CCC1c2cc(OC)c(F)cc2CN1c1ccnc(-c2ncccn2)n1 (single isomer, unassigned) [Example 77, 2-([2,2′-Bipyrimidin]-4-yl)-1-ethyl-5-fluoro-6-methoxyisoindoline]		110
CCC1c2cc(OC)c(F)cc2CN1c1ccnc(-c2ncccn2)n1 (single isomer, unassigned) [Example 78, 2-([2,2′-Bipyrimidin]-4-yl)-1-ethyl-5-fluoro-6-methoxyisoindoline]	98	
CCC1c2cc(F)c(OC)cc2CN1c1cnc(-c2ncccn2)nc1 (single isomer, unassigned) [Example 89, 2-([2,2′-Bipyrimidin]-5-yl)-1-ethyl-6-fluoro-5-methoxyisoindoline]	8	
CCC1c2cc(F)c(OC)cc2CN1c1cnc(-c2ncccn2)nc1 (single isomer, unassigned) [Example 90, 2-([2,2′-Bipyrimidin]-5-yl)-1-ethyl-6-fluoro-5-methoxyisoindoline]	260	
CCC1c2cc(F)c(OC)cc2CN1c1cnc(C(=O)O)nc1 (single isomer, unassigned) [Example 99, 5-(1-Ethyl-6-fluoro-5-methoxyisoindolin-2-yl)pyrimidine-2-carboxylic Acid]	7000	
CCC1c2cc(F)c(OC)cc2CN1c1cnc(C(=O)O)nc1 (single isomer, unassigned) [Example 100, 5-(1-Ethyl-6-fluoro-5-methoxyisoindolin-2-yl)pyrimidine-2-carboxylic Acid]	200	
CCC1c2cc(F)c(OC)cc2CN1c1cnc(C(=O)NS(C)(=O)=O)nc1 (single isomer, unassigned) [Example 102, 5-(1-Ethyl-6-fluoro-5-methoxyisoindolin-2-yl)-N-(methylsulfonyl)pyrimidine-2-carboxamide]		620
CCC1c2cc(F)c(OC)cc2CN1c1cnc(C(=O)NS(C)(=O)=O)nc1 (single isomer, unassigned) [Example 103, 5-(1-Ethyl-6-fluoro-5-methoxyisoindolin-2-yl)-N-(methylsulfonyl)pyrimidine-2-carboxamide]	600	
CCC1c2cc(F)c(OC)cc2CN1c1cnc(C(=O)Nc2ccccn2)nc1 (single isomer, unassigned) [Example 107, 5-(1-Ethyl-6-fluoro-5-methoxyisoindolin-2-yl)-N-(pyridin-2-yl)pyrimidine-2-carboxamide]	49000	
